Patent US12173007B2, “Imidazopyridazine IL-17 inhibitor compounds” (Janssen Pharmaceutica NV, priority 2021, dated 2024)

Legend:
[1] = molecular target: IL-17A(FLAG-Tagged): IL-17RA(His-Tagged) binding (Homo sapiens, UniProt Q16552, K93Q); test: IL-17A(FLAG-tagged):IL-17RA(His-tagged) binding disruption Eu-HTRF assay, Protocol 2; settings: FLAG-IL-17A 1 nM; average if tested more than once
Procedure, shortened: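 FLAG-tagged IL-17A (1 nM final) was preincubated with compound (2-fold serial dilutions, 22 points) for 1 h at rt in PBS + 0.01% Triton X-100. 10×His-IL-17RA, Eu-anti-FLAG and D2-anti-His in buffer containing KF were then added for 2 h at rt. IC50 came from the 665/615 nm HTRF ratio fitted to a one-site competition model.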

[2] = tested on: IL-17A-induced G-CSF production in human normal keratinocyte (NHK); test: NHK assay: IL-17A-induced G-CSF production in normal human keratinocytes; format: cell-based; settings: Homo sapiens, Keratinocyte, 24 h, IL-17A 5 ng/mL, G-CSF by HTRF, average if tested more than once
Procedure, shortened: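 Compound titrations are first mixed with recombinant human IL-17A for 1 h at room temperature. The mixture goes onto adult normal human keratinocytes (final IL-17A 5 ng/mL, 5% FBS, 0.2% DMSO) for 24 h at 37 °C. Secreted G-CSF is then measured by HTRF and IC50 fitted.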

Sequence of UniProt Q16552 (Q16552 with tags, fused parts or gaps K93Q): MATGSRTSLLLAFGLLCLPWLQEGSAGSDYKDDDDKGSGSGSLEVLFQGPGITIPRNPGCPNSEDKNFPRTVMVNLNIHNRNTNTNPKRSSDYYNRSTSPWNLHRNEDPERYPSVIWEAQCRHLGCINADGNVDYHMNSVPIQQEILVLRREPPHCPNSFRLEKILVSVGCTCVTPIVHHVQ

IC50 [1] [nM] | SMILES | IC50 [2] [nM]
< 50 | COc1nonc1C(=O)N[C@H](c1cn2ncc([C@@H](COC3CC3)N3CC(F)(F)CNC3=O)cc2n1)C1CCC(F)(F)CC1 [Example 77, N—((S)-(7-((S)-2-Cyclopropoxy-1-(5,5-difluoro-2-oxotetrahydropyrimidin-1(2H)-yl)ethyl)imidazo[1,2-b]pyridazin-2-yl)(4,4-difluorocyclohexyl)methyl)-4-methoxy-1,2,5-oxadiazole-3-carboxamide] | < 50
< 50 | [2H]C1([2H])NC(=O)N([C@H](COC)c2cnn3cc([C@H](CCC(C)(C)C(F)(F)F)NC(=O)c4nonc4C4CC4)nc3c2)C([2H])([2H])C1(F)F [Example 80, 4-Cyclopropyl-N—((S)-1-(7-((S)-1-(5,5-difluoro-2-oxotetrahydropyrimidin-1(2H)-yl-4,4,6,6-d4)-2-methoxyethyl)imidazo[1,2-b]pyridazin-2-yl)-5,5,5-trifluoro-4,4-dimethylpentyl)-1,2,5-oxadiazole-3-carboxamide] | < 50
< 50 | [2H]C1([2H])NC(=O)N([C@H](COC2CC2)c2cnn3cc([C@@H](NC(=O)c4nonc4C(F)F)C4CCC(F)(F)CC4)nc3c2)C([2H])([2H])C1(F)F [Example 82, N—((S)-(7-((S)-2-Cyclopropoxy-1-(5,5-difluoro-2-oxotetrahydropyrimidin-1(2H)-yl-4,4,6,6-d4)ethyl)imidazo[1,2-b]pyridazin-2-yl)(4,4-difluorocyclohexyl)methyl)-4-(difluoromethyl)-1,2,5-oxadiazole-3-carboxamide] | < 50

Further lines, the molecule ahead of its results:

SMILES | IC50 [1] [nM] | IC50 [2] [nM]
[2H]C1([2H])NC(=O)N([C@H](COC2CC2)c2cnn3cc([C@H](CCC(C)(C)C(F)(F)F)NC(=O)c4nonc4C)nc3c2)C([2H])([2H])C1(F)F [Example 76, N—((S)-1-(7-((S)-2-Cyclopropoxy-1-(5,5-difluoro-2-oxotetrahydropyrimidin-1(2H)-yl-4,4,6,6-d4)ethyl)imidazo[1,2-b]pyridazin-2-yl)-5,5,5-trifluoro-4,4-dimethylpentyl)-4-methyl-1,2,5-oxadiazole-3-carboxamide] | < 50 | < 50
O=C(N[C@H](c1cn2ncc([C@@H](COC3CC3)N3CC(F)(F)CNC3=O)cc2n1)C1CCC(F)(F)CC1)c1nonc1C(F)F [Example 78, N—((S)-(7-((S)-2-Cyclopropoxy-1-(5,5-difluoro-2-oxotetrahydropyrimidin-1(2H)-yl)ethyl)imidazo[1,2-b]pyridazin-2-yl)(4,4-difluorocyclohexyl)methyl)-4-(difluoromethyl)-1,2,5-oxadiazole-3-carboxamide] | < 50 | < 50
COC[C@H](c1cnn2cc([C@@H](NC(=O)c3nonc3C(F)F)C3CCC(F)(F)CC3)nc2c1)N1CC(F)(F)CNC1=O [Example 79, N—((S)-(7-((S)-1-(5,5-Difluoro-2-oxotetrahydropyrimidin-1(2H)-yl)-2-methoxyethyl)imidazo[1,2-b]pyridazin-2-yl)(4,4-difluorocyclohexyl)methyl)-4-(difluoromethyl)-1,2,5-oxadiazole-3-carboxamide] | < 50 | < 50
[2H]C1([2H])NC(=O)N([C@H](COC)c2cnn3cc([C@H](CCC(C)(C)C(F)(F)F)NC(=O)c4nonc4C(F)F)nc3c2)C([2H])([2H])C1(F)F [Example 81, N—((S)-1-(7-((S)-1-(5,5-Difluoro-2-oxotetrahydropyrimidin-1(2H)-yl-4,4,6,6-d4)-2-methoxyethyl)imidazo[1,2-b]pyridazin-2-yl)-5,5,5-trifluoro-4,4-dimethylpentyl)-4-(difluoromethyl)-1,2,5-oxadiazole-3-carboxamide] | < 50 | < 50
